Measured values as given in patent US20240317744A1, “Bicyclic Ureas As Kinase Inhibitors” (Incyte Corporation, priority 2023, published 2024).

Legend:
[1] = target: T1, catalytic domain (JH1, amino acids 826-1132) of human JAK2 (Homo sapiens, UniProt O60674); experiment: JAK2 LanthaScreen JH1 Binding Assay; conditions: JAK2 JH1 1.5 nM, 50 nM tracer, 2 hours at 25° C.; read-out: JH1 BIND
T1 construct: catalytic domain (JH1, amino acids 826-1132) of human JAK2; FLAG (N); biotin (biotinylated); purchased Carna Biosciences 08-445-20N; host or cells: baculovirus expression system
T1 sequence (O60674 826-1132): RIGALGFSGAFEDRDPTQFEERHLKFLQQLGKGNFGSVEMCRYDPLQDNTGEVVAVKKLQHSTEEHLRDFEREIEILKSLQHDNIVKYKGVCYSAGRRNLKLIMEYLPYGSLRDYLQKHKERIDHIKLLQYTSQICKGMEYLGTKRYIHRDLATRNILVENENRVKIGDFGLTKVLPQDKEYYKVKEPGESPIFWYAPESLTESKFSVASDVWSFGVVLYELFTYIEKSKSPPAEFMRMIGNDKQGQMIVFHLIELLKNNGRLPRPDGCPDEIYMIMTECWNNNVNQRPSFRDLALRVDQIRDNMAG
How it was run: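 TR-FRET tracer-displacement format: compound IC50 from four-parameter curves after 2 h at 25° C. Reaction held 1.5 nM biotinylated, FLAG-tagged JH1 (aa 826-1132), 50 nM tracer, 0.5 nM Streptavidin-Tb, pH 7.5 Tris buffer; 2 mM ATP set nonspecific background.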

[2] = target: T2, pseudo-kinase domain (JH2, amino-acids 536-812) of human Wild Type JAK2 (Homo sapiens, UniProt O60674, F794H/W659A/W777A); experiment: JAK2 LanthaScreen JH2-WT Binding Assay; conditions: JAK2 JH2-WT 0.145 nM, 50 nM tracer, 1 hour at 25° C.; read-out: JH2 BIND WT
T2 construct: pseudo-kinase domain (JH2, amino-acids 536-812 with 3 surface mutations W659A, W777A, F794H); His (C); purchased BPS Bioscience 79463; host or cells: baculovirus expression system
T2 sequence (O60674 536-812 W659A/W777A/F794H): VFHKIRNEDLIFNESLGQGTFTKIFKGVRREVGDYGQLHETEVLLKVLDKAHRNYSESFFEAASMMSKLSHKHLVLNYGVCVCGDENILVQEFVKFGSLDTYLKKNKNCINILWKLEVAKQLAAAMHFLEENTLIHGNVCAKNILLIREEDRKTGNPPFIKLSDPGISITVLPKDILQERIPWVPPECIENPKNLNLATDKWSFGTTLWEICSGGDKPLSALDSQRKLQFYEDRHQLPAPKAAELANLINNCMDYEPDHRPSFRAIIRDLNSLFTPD
How it was run: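 Compounds, serially diluted, were mixed with 0.145 nM JH2 domain, 50 nM tracer and 0.25 nM streptavidin-Tb cryptate, then incubated 1 hour at 25° C before LanthaScreen reading. Wells containing 2 mM ATP defined non-specific binding. Four-parameter dose-response curves gave IC50.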

[3] = target: T3, pseudo-kinase domain (JH2, amino-acids 536-812) of human V617F mutant JAK2 (Homo sapiens, UniProt O60674, F794H/V617F/W659A/W777A); experiment: JAK2 LanthaScreen JH2-V617F Binding Assay; conditions: JAK2 JH2-V617F 0.26 nM, 50 nM tracer, 1 hour at 25° C.; read-out: JH2 BIND V617F
T3 construct: pseudo-kinase domain (JH2, amino-acids 536-812 with 3 surface mutations W659A, W777A, F794H); His (C); purchased BPS Bioscience 79498; host or cells: baculovirus expression system
T3 sequence (O60674 536-812 V617F/W659A/W777A/F794H): as the sequence (O60674 536-812 W659A/W777A/F794H) above, with V82F counted along it
How it was run: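 This is a TR-FRET tracer-displacement format with a 1 h, 25 °C incubation. It combined 0.26 nM baculovirus-expressed biotinylated JH2-V617F, 50 nM fluorescent JAK2-JH2 tracer and 0.25 nM streptavidin-Tb cryptate in 50 mM Tris pH 7.5, 10 mM MgCl2, 5 mM DTT. Background came from 2 mM ATP, and IC50 values were from four-parameter dose-response fits.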

[4] = target: catalytic domain (JH1, amino acids 808-1132) of human JAK2 (Homo sapiens, UniProt O60674); experiment: JAK2 HTRF Enzyme Activity Assay; assay type: biochemical; conditions: ATP 30 µM, 60 minutes at 25° C.; read-out: V617F ENZ 30 UM
catalytic domain (JH1, amino acids 808-1132) of human JAK2, sequence (O60674 808-1132 limits assumed): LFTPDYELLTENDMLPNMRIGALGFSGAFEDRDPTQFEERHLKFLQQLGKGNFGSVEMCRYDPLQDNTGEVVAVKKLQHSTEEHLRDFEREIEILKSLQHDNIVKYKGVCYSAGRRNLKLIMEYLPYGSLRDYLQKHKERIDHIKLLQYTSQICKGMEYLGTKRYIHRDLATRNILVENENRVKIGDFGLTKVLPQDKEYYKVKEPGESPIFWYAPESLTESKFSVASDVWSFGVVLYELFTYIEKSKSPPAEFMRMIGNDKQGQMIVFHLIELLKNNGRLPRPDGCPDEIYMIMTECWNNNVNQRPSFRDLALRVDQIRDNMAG

Row | Structure (SMILES) | IC50 [1] [nM] | IC50 [2] [nM] | IC50 [3] [nM] | IC50 [4] [nM]
1 | COC(=O)N[C@@H]1CC[C@@H](n2c(=O)n(C)c3cnc(Nc4cccc(C(=O)NC5CCCCC5)n4)cc32)C1 [Example 87, Methyl ((1R,3R)-3-(6-((6-(cyclohexylcarbamoyl)pyridin-2-yl)amino)-3-methyl-2-oxo-2,3-dihydro-1H-imidazo[4,5-c]pyridin-1-yl)cyclopentyl)carbamate] | > 1000 | ≤ 10 | 10 to 100 | > 1000
2 | [2H]C([2H])([2H])n1c(=O)n([C@@H]2CC[C@@H](NC(=O)OC)C2)c2cc(Nc3ccc4c(n3)c(-c3cnn(C(F)(F)F)c3)cn4CCOC)ncc21 [Example 88, Methyl ((1R,3R)-3-(6-((1-(2-methoxyethyl)-3-(1-(trifluoromethyl)-1H-pyrazol-4-yl)-1H-pyrrolo[3,2-b]pyridin-5-yl)amino)-3-(methyl-d3)-2-oxo-2,3-dihydro-1H-imidazo[4,5-c]pyridin-1-yl)cyclopentyl)carbamate] | > 1000 | ≤ 10 | ≤ 10 | > 1000
3 | [2H]C([2H])([2H])n1c(=O)n([C@@H]2CC[C@@H](NC(=O)OC)C2)c2cc(Nc3cc(-c4cnccc4C(F)(F)F)c4c(n3)n(-c3cnn(C(F)F)c3)c(=O)n4C)ncc21 [Example 89, Methyl ((1R,3R)-3-(6-((3-(1-(difluoromethyl)-1H-pyrazol-4-yl)-1-methyl-2-oxo-7-(4-(trifluoromethyl)pyridin-3-yl)-2,3-dihydro-1H-imidazo[4,5-b]pyridin-5-yl)amino)-3-(methyl-d3)-2-oxo-2,3-dihydro-1H-imidazo[4,5-c]pyridin-1-yl)cyclopentyl)carbamate] | > 1000 | ≤ 10 | ≤ 10 | > 1000
4 | [2H]C([2H])([2H])n1c(=O)n(C2CC3(CC(NC(=O)C4CC4)C3)C2)c2cc(Nc3cc(C(=O)N4CCOCC4)c4cccc(C(F)(F)F)c4n3)ncc21 (stereo not shown) [Example 90, N-(6-(3-(Methyl-d3)-6-((4-(morpholine-4-carbonyl)-8-(trifluoromethyl)quinolin-2-yl)amino)-2-oxo-2,3-dihydro-1H-imidazo[4,5-c]pyridin-1-yl)spiro[3,3]heptan-2-yl)cyclopropanecarboxamide] | 100 to 500 | ≤ 10 | ≤ 10 | > 1000
5 | [2H]C([2H])([2H])n1c(=O)n([C@@H]2CC[C@](C)(NC(=O)C3CC3)C2)c2cc(Nc3cc(C(C)(C)O)cc(-c4ncc(Cl)s4)n3)ncc21 [Example 92, N-((1S,3R)-3-(6-((6-(5-Chlorothiazol-2-yl)-4-(2-hydroxypropan-2-yl)pyridin-2-yl)amino)-3-(methyl-d3)-2-oxo-2,3-dihydro-1H-imidazo[4,5-c]pyridin-1-yl)-1-methylcyclopentyl)cyclopropanecarboxamide] | > 1000 | ≤ 10 | ≤ 10 | > 1000
6 | [2H]C([2H])([2H])n1c(=O)n([C@@H]2CC[C@@H](NC(=O)OC)C2)c2cc(Nc3cc(C(C)(C)O)cc(-c4ncc(Cl)s4)n3)ncc21 [Example 93, Methyl ((1R,3R)-3-(6-((6-(5-chlorothiazol-2-yl)-4-(2-hydroxypropan-2-yl)pyridin-2-yl)amino)-3-(methyl-d3)-2-oxo-2,3-dihydro-1H-imidazo[4,5-c]pyridin-1-yl)cyclopentyl)carbamate] | > 1000 | ≤ 10 | ≤ 10 | > 1000
7 | [2H]C([2H])([2H])n1c(=O)n([C@@H]2CC[C@@H](NC(=O)OC)C2)c2cc(Nc3cc(C(C)(C)O)c4cc(-c5cnn(C)c5)cc(C(F)(F)F)c4n3)ncc21 [Example 94, Methyl ((1R,3R)-3-(6-((4-(2-hydroxypropan-2-yl)-6-(1-methyl-1H-pyrazol-4-yl)-8-(trifluoromethyl)quinolin-2-yl)amino)-3-(methyl-d3)-2-oxo-2,3-dihydro-1H-imidazo[4,5-c]pyridin-1-yl)cyclopentyl)carbamate] | > 1000 | ≤ 10 | ≤ 10 | > 1000
